Data from patent US9469630B2, “Sustained-release formulation for injection” (SUMITOMO DAINIPPON PHARMA CO., LTD., priority 2010, dated 2016).

Assay: Solubility in water
Type: physicochemical

SMILES: Cl.O=C1[C@@H]2[C@H]3CC[C@H](C3)[C@@H]2C(=O)N1C[C@@H]1CCCC[C@H]1CN1CCN(c2nsc3ccccc23)CC1 [Compound 1, N-[4-[4-(1,2-benzisothiazol-3-yl)-1-piperazinyl]-(2R,3R)-2,3-tetramethylene-butyl]-(1′R,2′S,3′R,4′S)-2,3-bicyclo[2,2,1]heptanedicarboximide hydrochloride]
- solubility in water: low
